Inconclusive results are not listed. Active and inactive are the calls of the source. No rule for the calls is given here.
Test: mouse embryonic fibroblast toxicity – cell-based, plate reader, dry powder, set 2, cytotoxicity control, dose response (AID 652280)
Conditions: NIH/3T3 mouse fibroblast toxicity, plate reader; at 16 µM (top of the series)

SMILES | activity change, negative = toxicity
C[C@H]1CN([C@@H](C)CO)C(=O)c2cccc(NC(=O)c3ccncc3)c2O[C@@H]1CN(C)Cc1ccc(F)cc1Cl | -10.1% (inactive)
COc1cccc(CN(C)C[C@H]2Oc3c(NC(=O)c4ccncc4)cccc3C(=O)N([C@@H](C)CO)C[C@@H]2C)c1 | 6.03% (inactive)
CC(C)N1C[C@@H](CNCc2ccc(Oc3ccccc3)cc2)Oc2c(NC(=O)c3ccncc3)cccc2C1=O | -29.5% (inactive)
CC(C)N1C[C@@H](C)[C@H](CN(C)C(=O)OC(C)(C)C)Oc2c(C(=O)Nc3ccncc3)cccc2C1=O | -10.9% (inactive)
CC(C)N1C[C@H](C)[C@@H](CN(C)Cc2ccc(Cl)cc2)Oc2c(NC(=O)c3ccncc3)cccc2C1=O | -13.4% (inactive)
COc1ccc(S(=O)(=O)N(C)C[C@H]2OCCCC[C@H](C)Oc3ccc(N(C)C)cc3C(=O)N([C@H](C)CO)C[C@@H]2C)cc1 | 10% (inactive)
CN(C)C(=O)c1ccc(-c2ccc([C@H]3[C@H](CO)N4CCCCN(C(=O)C5CCCC5)C[C@@H]34)cc2)cc1 | -15.7% (inactive)
CN(C)CC#Cc1cccc(-c2nc(C(=O)N3CCN(C)CC3)cc3c2[C@H](CCO)N(S(=O)C(C)(C)C)C3)c1 (some centres undefined) | 16.4% (inactive)
CC(C)N1C[C@@H](CN(C)Cc2ccc(Cl)cc2)Oc2c(NC(=O)c3ccnnc3)cccc2C1=O | 2.62% (inactive)
CC(C)N1C[C@@H](CN(C)Cc2ccc(Cl)cc2)Oc2c(NC(=O)c3ncn[nH]3)cccc2C1=O | 0.096% (inactive)
CN(C)CC#Cc1cccc(-c2nc(C(=O)NCc3ccc4c(c3)OCO4)cc3c2[C@@H](CCO)N(S(=O)C(C)(C)C)C3)c1 (some centres undefined) | 0.74% (inactive)
CC(C)N1CC2(CN(Cc3ccc(-c4cccnc4)cc3)C2)Oc2c(NC(=O)c3ccncc3)cccc2C1=O | -22.8% (inactive)
OC[C@H]1[C@H](c2ccc(Br)cc2)[C@@H]2CN(Cc3ccccn3)CCCCN12 | 5.37% (inactive)
CN(C)C(=O)c1cccc(-c2ccc([C@H]3[C@H](CO)N4CCCCN(Cc5cccnc5)C[C@@H]34)cc2)c1 | -3% (inactive)
COc1ccc(CN(C)C[C@@H]2Oc3c(NC(=O)c4ccncc4)cccc3C(=O)N([C@@H](C)CO)C[C@H]2C)cc1 | -22.2% (inactive)
CC(C)N1CC2(CN(CC3CCCCC3)C2)Oc2c(NC(=O)c3ccncc3)cccc2C1=O | 9.84% (inactive)
C[C@H]1CN([C@@H](C)CO)C(=O)c2cccc(NC(=O)c3ccncc3)c2O[C@@H]1CN(C)Cc1ccc(F)c(F)c1 | -6.64% (inactive)
CC(C)N1C[C@H](C)[C@@H](CN(C)Cc2ccc(Cl)cc2)Oc2c(cccc2-c2nnn(-c3ccncc3)n2)C1=O | 65.7% (inactive)
CN(C)C(=O)c1cccc(-c2ccc([C@@H]3[C@H](CO)N4CCCCN(C(=O)C5CCC5)C[C@@H]34)cc2)c1 | -3.74% (inactive)
CN(C)C(=O)c1ccc(-c2ccc([C@H]3[C@H](CO)N4CCCCN(C(=O)C5CCC5)C[C@@H]34)cc2)cc1 | -17% (inactive)
COCC(=O)N1CCCCN2[C@@H](CO)[C@H](c3ccc(-c4cccc(C)c4)cc3)[C@@H]2C1 | -12.3% (inactive)
C[C@H]1CN([C@@H](C)CO)C(=O)c2cccc(NC(=O)c3ccncc3)c2O[C@@H]1CN(C)Cc1cc(Cl)cc(Cl)c1 | 15% (inactive)

SMILES | activity change, negative = toxicity
CN(C)C(=O)c1ccc(-c2ccc([C@H]3[C@H](CO)N4CCCCN(CC5CC5)C[C@@H]34)cc2)cc1 | 24.4% (inactive)
CC(C)N1C[C@@H](CN(C)Cc2ccc(Cl)cc2)Oc2c(NC(=O)c3ccnn3C)cccc2C1=O | 5.57% (inactive)
COc1cccc(-c2ccc([C@H]3[C@H](CO)N4CCCCN(C(=O)Cc5ccncc5)C[C@@H]34)cc2)c1 | -1.62% (inactive)
CN(C)C(=O)c1cccc(-c2ccc([C@H]3[C@@H](CO)N4CCCCN(C(=O)C5CCC5)C[C@H]34)cc2)c1 | 9.2% (inactive)
CN(C)C(=O)c1cccc(-c2ccc([C@@H]3[C@H]4CN(C(=O)C5CCC5)CCCCN4[C@H]3CO)cc2)c1 | 5.4% (inactive)
CC(C)N1C[C@H](C)[C@@H](CN(C)Cc2ccc(Cl)cc2)Oc2c(C(=O)Nc3ccncc3)cccc2C1=O | -7.6% (inactive)
O=C(Cc1ccccn1)N1CCCCN2[C@@H](CO)[C@H](c3ccc(-c4ccc(F)cc4)cc3)[C@@H]2C1 | -8.79% (inactive)
CN(C)C(=O)c1cccc(-c2ccc([C@H]3[C@H](CO)N4CCCCN(C(=O)C5CCC5)C[C@@H]34)cc2)c1 | 11.8% (inactive)
CN(C)C(=O)c1cccc(-c2ccc([C@H]3[C@H](CO)N4CCCCN(CC5CCOCC5)C[C@@H]34)cc2)c1 | 20% (inactive)
Cc1ccccc1CN(C)C[C@H]1Oc2c(NC(=O)c3ccncc3)cccc2C(=O)N([C@@H](C)CO)C[C@@H]1C | -4.8% (inactive)
C[C@H]1CN([C@@H](C)CO)C(=O)c2cccc(NC(=O)c3ccncc3)c2O[C@@H]1CN(C)Cc1ccc(Oc2ccccc2)cc1 | 12.9% (inactive)
CC(C)N1C[C@@H](CN(C)Cc2ccc(Cl)cc2)Oc2c(NC(=O)c3ccncn3)cccc2C1=O | -18.8% (inactive)
CN(C)C(=O)c1cccc(-c2ccc([C@@H]3[C@@H](CO)N4CCCCN(C(=O)C5CCC5)C[C@H]34)cc2)c1 | 5.21% (inactive)
CC(C)(C)[S@@](=O)N1Cc2cc(C(=O)NCc3ccc4c(c3)OCO4)nc(-c3cccc(-c4ccccc4)c3)c2[C@H]1CCO | 14.4% (inactive)
O=C(Cc1ccccn1)N1CCCCN2[C@@H](CO)[C@H](c3ccc(Br)cc3)[C@@H]2C1 | 9.05% (inactive)
CC(C)N1CC[C@@H](CNC(=O)OC(C)(C)C)Oc2c(NC(=O)c3ccncc3)cccc2C1=O | -8.28% (inactive)
C[C@H]1CN([C@@H](C)CO)C(=O)c2cccc(NC(=O)c3ccncc3)c2O[C@@H]1CN(C)Cc1cccc(Cl)c1 | -20.7% (inactive)
CN(C)CC#Cc1cccc(-c2nc(C(=O)NCc3ccc(Oc4ccccc4)cc3)cc3c2[C@H](CCO)N(S(=O)C(C)(C)C)C3)c1 (some centres undefined) | 63.9% (inactive)
COC[C@H](C)N1C[C@H](C)[C@@H](CN(C)Cc2ccc(Cl)cc2)Oc2c(NC(=O)c3ccncc3)cccc2C1=O | 2.38% (inactive)
CC(C)N1C[C@@H](CN(C)Cc2ccc(Cl)cc2)Oc2c(NC(=O)c3ccccc3)cccc2C1=O | 9.38% (inactive)
CC(C)N1C[C@H](C)[C@@H](CN(C)C(=O)OC(C)(C)C)Oc2c(cccc2-c2nn[nH]n2)C1=O | 34.3% (inactive)
CC(C)N1C[C@H](CN2Cc3ccccc3C2)Oc2c(NC(=O)c3ccncc3)cccc2C1=O | 1.03% (inactive)

SMILES | activity change, negative = toxicity
CN(C)C(=O)c1cccc(-c2ccc([C@H]3[C@@H](CO)N4CCCCN(C(=O)C5CCCC5)C[C@@H]34)cc2)c1 | 28.8% (inactive)
CN(C)CC#Cc1cccc(-c2nc(C(=O)N[C@@H]3CCN(Cc4ccccc4)C3)cc3c2[C@@H](CCO)N(S(=O)C(C)(C)C)C3)c1 (some centres undefined) | 0.065% (inactive)
CC(C)N1CC2(CN(Cc3ccccc3F)C2)Oc2c(NC(=O)c3ccncc3)cccc2C1=O | 6.11% (inactive)
CC(C)(C)S(=O)N1Cc2cc(C(=O)NCc3ccc4c(c3)OCO4)nc(-c3cccc(C#CCC4CCCC4)c3)c2[C@H]1CCO (some centres undefined) | 96.9% (inactive)
CC(C)N1C[C@@H](CN(C)Cc2ccc(Cl)cc2)Oc2c(NC(=O)c3ccncc3)cccc2C1=O | -18% (inactive)
C[C@@H]1CN([C@@H](C)CO)C(=O)c2cccc(NC(=O)c3ccncc3)c2O[C@H]1CN(C)C | -10.2% (inactive)
CC(C)N1C[C@@H](C)[C@H](CN(C)Cc2ccc(OCCCC(F)(F)C(F)(F)C(F)(F)C(F)(F)C(F)(F)C(F)(F)C(F)(F)C(F)(F)F)cc2)Oc2c(NC(=O)c3ccncc3)cccc2C1=O | 22.1% (inactive)
C[C@@H]1CN([C@@H](C)CO)C(=O)c2cccc(NC(=O)c3ccncc3)c2O[C@@H]1CN(C)Cc1ccc(Oc2ccccc2)cc1 | 15.4% (inactive)
CCOC(=O)c1cc2c(c(-c3cccc(C#CCN(C)C)c3)n1)[C@@H](CCO)N(S(=O)C(C)(C)C)C2 (some centres undefined) | 21.1% (inactive)
C[C@H]1CN([C@@H](C)CO)C(=O)c2cccc(NC(=O)c3ccncc3)c2O[C@@H]1CN(C)Cc1c(Cl)cccc1Cl | 16% (inactive)
CN(C)CC#Cc1cccc(-c2nc(C(=O)N3CCN(Cc4ccccc4)CC3)cc3c2[C@H](CCO)N(S(=O)C(C)(C)C)C3)c1 (some centres undefined) | -3.09% (inactive)
CC(C)(C)S(=O)N1Cc2cc(C(=O)NCc3ccc4c(c3)OCO4)nc(-c3cccc(-c4cc5ccccc5o4)c3)c2[C@H]1CCO (some centres undefined) | -5.85% (inactive)
O=C(Cn1ccnc1[N+](=O)[O-])NCc1ccccc1 | 17.4% (inactive)
CC(C)N1CC2(CN(Cc3ccccc3Cl)C2)Oc2c(NC(=O)c3ccncc3)cccc2C1=O | -16.5% (inactive)
CC(C)N1C[C@H](CN(C)Cc2ccc(Cl)cc2)Oc2c(NC(=O)c3ccnnc3)cccc2C1=O | 3.72% (inactive)
COc1ccc(C#Cc2cccc(-c3nc(C(=O)NCc4ccc5c(c4)OCO5)cc4c3[C@@H](CCO)N(S(=O)C(C)(C)C)C4)c2)cc1OC (some centres undefined) | 9.35% (inactive)
CN(C)C(=O)c1cccc(-c2ccc([C@H]3[C@H](CO)N4CCCCN(C(=O)C5CCCC5)C[C@@H]34)cc2)c1 | 32.1% (inactive)
Cc1cccc(-c2ccc([C@H]3[C@H](CO)N4CCCCN(C(=O)c5cccnc5)C[C@@H]34)cc2)c1 | -10.6% (inactive)
CC(C)N1C[C@@H](CN(C)Cc2ccc(Cl)cc2)Oc2c(C(=O)Nc3ccncc3)cccc2C1=O | -18.4% (inactive)
CC(C)N1C(=O)c2cccc(NC(=O)c3ccncc3)c2O[C@H](CN(C)Cc2ccc(Cl)cc2)[C@H]1C | -1.14% (inactive)
